Series [1] is described as follows: Pharmacokinetic test in rats. The conditions noted are these: i.g. (5 mg/kg), vehicle 5% DMSO+5% Solutol+10% PEG400+80% (20% SBE-β-CD). Format: in vivo, SD rats. Here is the method: Experimental objective: In this experiment, a single dose of the test compound was administered to SD rats via intravenous administration and intragastric gavage, and the concentration of the test compound in plasma of the rats was measured to evaluate the pharmacokinetic profile of the test compound in the rats.
Experimental animals: Male SD rats, 200-220 g, 6 rats/compound, purchased from Chengdu Ddossy Experimental Animals Co., Ltd.
Experimental method: On the day of the experiment, 6 SD rats were randomly grouped according to their body weights. The animals were fasted with water available for 12 to 14 h one day before the administration, and were fed 4 h after the administration. Table 3 Administration information of pharmacokinetic test in rats
Sampling: Before and after the administration, 0.1 mL of blood was taken from the orbits under isoflurane anaesthesia, and placed in an EDTAK2 centrifuge tube. Centrifugation was carried out at 5000 rpm at 4°C for 10 min, and the plasma was collected.
The plasma collection time points for IV&PO groups were 0, 5 min, 15 min, 30 min, 1 h, 2 h, 4 h, 7 h, 24 h, and 48 h.
Before analysis and detection, all samples were stored at -60°C. The samples were analysed quantitatively by LC-MS/MS. Table 4 Pharmacokinetic parameters of compounds of the present invention in plasma of rats

Series [2] deals with Human CD34+ Hematopoietic stem cells. The series is described as follows: Human CD34+ hematopoietic stem cell proliferation inhibition experiment. It counts as cell-based. The conditions noted are these: 168 h, inhibitory activity against the proliferation of CD34+ hematopoietic stem cells, 7 days. The protocol:
Human CD34+ Hematopoietic stem cells (TPCS, Cat.hmPB34-P-2CW) are CD34-positive stem cells obtained from human PBMCs through immunomagnetic bead sorting. The culture conditions are as follows: DPBS (Gibco, Cat.14190-144) +StemSpan SFEM II ([…], Cat.9655) +1X StemSpan CD34+ Expansion Supplement ([…], Cat.2691). First, 40 nL of DMSO, the positive reference compound Talazoparib, or the test compounds were respectively added to a 384-well plate (Corning, Cat. 3764). Then, a cell suspension was added at 400 cells per well in 40 µL of medium, resulting in final concentrations of 0.1% DMSO, 3 µM Talazoparib, or various concentrations of the compounds in each well. The plate was centrifuged at room temperature at 1000 rpm for 1 minute, followed by incubation for 7 days in a 37°C, 5% CO2 incubator. Following incubation, 20 µL of CellTiter-Glo Reagent (Promega, Cat. G7573) was directly added to each well, and the plate was centrifuged at room temperature at 1000 rpm for 1 minute, followed by incubation for 20 minutes in the dark. Following incubation, the chemiluminescent signal (CFU) was read and recorded using an Envision multimode microplate reader (PerkinElmer, Cat. 2104). The cell proliferation inhibition rate at various compound concentrations was calculated according to Equation (3), where CFUhigh control represents the average signal value of the DMSO group, CFUlow control represents the average signal value of the Talazoparib group, and CFUcompound represents the average signal value of the compound-treated group. The processed data obtained from Equation (3) were analysed using XLfit or GraphPad Prism software, and a four-parameter curve fitting model was applied to calculate the compound concentration corresponding to a 50% inhibition rate, i.e., the IC50 value. Inhibition% = (CFUhigh control−CFUcompound)/(CFUhigh control−CFUlow control) × 100% [formula]

Where only a bound is given, the exact number is not on record here.

In the case of `CC1(C)[C@H](NC(=O)c2ccc(N3CCC(CN4CCN5c6cc(F)c(C7CCC(=O)NC7=O)cc6CC[C@H]5C4)CC3)cc2)C(C)(C)[C@H]1Oc1ccc(C#N)c2ncccc12` (stereo partly drawn) [Compound 31], the F in series [1] was 49.1+12%. For the same compound, the AUC(0-t) (in general, the area under the concentration-time curve up to a stated or last time point) in series [1] (rat, plasma, po) is 5430 ± 1360 ng·h/mL. Moreover, in series [2], the IC50 (commonly the concentration that gives 50% inhibition) is more than 10 µM.
